Results from publication PMC4809600, “The Influence of Chronic Wound Extracts on Inflammatory Cytokine and Histatin Stability” (PLoS ONE, 2016).
Where no end group is shown, it is not given here.

Experiments:
[1] = Stability in CWE with protease inhibitor cocktail (PIC), capillary zone electrophoresis; assay type: in vitro ADME, human; settings: 37°C, CZE, 0 h = 100%; for Percentage intact, CWE + PIC 2h / Percentage intact, CWE + PIC 4h / Percentage intact, CWE + PIC 8h / Percentage intact, CWE + PIC 16h / Percentage intact, CWE + PIC 24h / Percentage intact, CWE + PIC 48h / Percentage intact, CWE + PIC 72h / Percentage intact, CWE + PIC 96h: 1 mg/ml in PBS mixed 1:1 with CWE (1 mg/ml protein, pool of 5 donors) in PBS containing PIC (final 1:140 v/v), ratio to imidazole
Description: (§1) Debridement tissue was obtained from chronic ulcers of 15 patients with therapy resistant (arterio-venous) leg ulcers, according to procedures described earlier. In brief, moist, easily removable debridement material, essentially blood free, was collected from the ulcer surface and divided equally into two different solutions: (i) PBS (B. Braun, Melsungen, Germany), (ii) PBS with protease inhibitor cocktail (PIC) (1:100; v/v) (Sigma-Aldrich, Steinheim, Germany). The mixtures were gently shaken for 1 h at 4°C to elute proteins and centrifuged; the supernatants were stored at -80°C. Total protein content of the supernatant was measured using the BioRad Protein Assay (BioRad Laboratories, Hercules, California, USA) essentially as described by the supplier. Samples were diluted to 1 mg/ml protein and extracts of five different donors were pooled; three different pools of five donors were used in all experiments. The samples are referred to as chronic wound extracts (CWE).
(§2) To determine the stability of the different peptides in CWE, histatins and cytokines were dissolved in PBS at 1 mg/ml. Histatins and cytokines were incubated in a 1:1 ratio with (i) PBS, (ii) CWE in PBS, or (iii) CWE in PBS containing PIC, in a total volume of 25 μl. Imidazole (Sigma-Aldrich) was added as an internal standard, with a final concentration of 100 μg/ml. The mixtures were incubated at 37°C, and samples were taken at 0, 24, 48, 72 and 96 h. For histatins containing mixtures, additional samples were taken after 2, 4, 8 and 16 h of incubation.
(§3) The samples were analyzed with a BioFocus 2000 capillary zone electrophoresis system (Bio-Rad Laboratories, Hercules, CA, USA) equipped with an uncoated fused-silica capillary of internal diameter 50 μm and a length of 24 cm. Samples were loaded by pressure injection (5 psi/sec). Separation was performed at 10 kV (cathode at the detector side) at 20°C using 0.1 M phosphate buffer (pH 2.5) as electrolyte and monitored continuously at 200 nm. Peaks were quantified with the BioFocus Integrator software. In order to quantify the percentage of intact peptides remaining after incubation with CWE, the ratios of histatins, rhIL-6 or rhCXCL8 to internal standard was set at 100% at 0h, and the ratios at the other incubation time points were related to this.

[2] = Stability in chronic wound extracts (CWE), capillary zone electrophoresis; assay type: in vitro ADME, human; settings: 37°C, CZE; for Percentage intact, CWE 2h / Percentage intact, CWE 4h / Percentage intact, CWE 8h / Percentage intact, CWE 16h / Percentage intact, CWE 24h / Percentage intact, CWE 48h / Percentage intact, CWE 72h / Percentage intact, CWE 96h: 1 mg/ml in PBS mixed 1:1 with CWE (1 mg/ml protein, pool of 5 donors) in PBS, UV 200 nm, ratio to imidazole
Description: as §1, §2, §3

Percentage intact, CWE + PIC 2h ([1]; experiment 1 of 3): 100%
Percentage intact, CWE + PIC 2h ([1]; experiment 2 of 3): 98.3314%
Percentage intact, CWE + PIC 2h ([1]; experiment 3 of 3): 98.9861%
Percentage intact, CWE + PIC 4h ([1]; experiment 1 of 3): 97.1353%
Percentage intact, CWE + PIC 4h ([1]; experiment 2 of 3): 95.8953%
Percentage intact, CWE + PIC 4h ([1]; experiment 3 of 3): 98.3062%
Percentage intact, CWE + PIC 8h ([1]; experiment 1 of 3): 96.5658%
Percentage intact, CWE + PIC 8h ([1]; experiment 2 of 3): 92.2482%
Percentage intact, CWE + PIC 8h ([1]; experiment 3 of 3): 95.5781%
Percentage intact, CWE + PIC 16h ([1]; experiment 1 of 3): 90.0803%
Percentage intact, CWE + PIC 16h ([1]; experiment 2 of 3): 88.9151%
Percentage intact, CWE + PIC 16h ([1]; experiment 3 of 3): 87.9983%
Percentage intact, CWE + PIC 24h ([1]; 24 h, experiment 1 of 3): 92.5228%
Percentage intact, CWE + PIC 24h ([1]; 24 h, experiment 2 of 3): 84.6363%
Percentage intact, CWE + PIC 24h ([1]; 24 h, experiment 3 of 3): 83.1367%
Percentage intact, CWE + PIC 48h ([1]; experiment 1 of 3): 76.9205%
Percentage intact, CWE + PIC 48h ([1]; experiment 2 of 3): 78.1025%
Percentage intact, CWE + PIC 48h ([1]; experiment 3 of 3): 83.127%
Percentage intact, CWE + PIC 72h ([1]; experiment 1 of 3): 74.0975%
Percentage intact, CWE + PIC 72h ([1]; experiment 2 of 3): 73.8197%
Percentage intact, CWE + PIC 72h ([1]; experiment 3 of 3): 80.0857%
Percentage intact, CWE + PIC 96h ([1]; experiment 1 of 3): 76.9035%
Percentage intact, CWE + PIC 96h ([1]; experiment 2 of 3): 71.7331%
Percentage intact, CWE + PIC 96h ([1]; experiment 3 of 3): 77.8206%
remaining at 24 h, 0.5 mg/ml ([1]; human, with protease inhibitor cocktail (PIC), CWE with protease inhibitor cocktail (final 1:140 v/v), 24 h, mean of 3 independent experiments, read-out: Remaining fraction of intact peptide after 24 h in CWE + PIC): 87%
Percentage intact, CWE 2h ([2]; 0 h = 100%, experiment 1 of 3): 91.7%
Percentage intact, CWE 2h ([2]; 0 h = 100%, experiment 2 of 3): 99.5769%
Percentage intact, CWE 2h ([2]; 0 h = 100%, experiment 3 of 3): 98.2054%
Percentage intact, CWE 4h ([2]; 0 h = 100%, experiment 1 of 3): 84.5%
Percentage intact, CWE 4h ([2]; 0 h = 100%, experiment 2 of 3): 100.271%
Percentage intact, CWE 4h ([2]; 0 h = 100%, experiment 3 of 3): 91.5097%
Percentage intact, CWE 8h ([2]; 8 h, 0 h = 100%, experiment 1 of 3): 75.7%
Percentage intact, CWE 8h ([2]; 8 h, 0 h = 100%, experiment 2 of 3): 86.2011%
Percentage intact, CWE 8h ([2]; 8 h, 0 h = 100%, experiment 3 of 3): 78.6965%
Percentage intact, CWE 16h ([2]; 0 h = 100%, experiment 1 of 3): 69.2%
Percentage intact, CWE 16h ([2]; 0 h = 100%, experiment 2 of 3): 65.943%
Percentage intact, CWE 16h ([2]; 0 h = 100%, experiment 3 of 3): 57.6063%
Percentage intact, CWE 24h ([2]; 24 h, 0 h = 100%, experiment 1 of 3): 42.5808%
Percentage intact, CWE 24h ([2]; 24 h, 0 h = 100%, experiment 2 of 3): 50.836%
Percentage intact, CWE 24h ([2]; 24 h, 0 h = 100%, experiment 3 of 3): 32.6705%
Percentage intact, CWE 48h ([2]; 0 h = 100%, experiment 1 of 3): 12.2019%
Percentage intact, CWE 48h ([2]; 0 h = 100%, experiment 2 of 3): 19.3697%
Percentage intact, CWE 48h ([2]; 0 h = 100%, experiment 3 of 3): 24.0021%
Percentage intact, CWE 72h ([2]; 0 h = 100%, experiment 1 of 3): 1.49%
Percentage intact, CWE 72h ([2]; 0 h = 100%, experiment 2 of 3): 2.89%
Percentage intact, CWE 72h ([2]; 0 h = 100%, experiment 3 of 3): 2.789%
Percentage intact, CWE 96h ([2]; 0 h = 100%, experiment 1 of 3): 0.001%
Percentage intact, CWE 96h ([2]; 0 h = 100%, experiment 2 of 3): 0.001%
Percentage intact, CWE 96h ([2]; 0 h = 100%, experiment 3 of 3): 1.322%
remaining at 8 h, 0.5 mg/ml ([2]; human, chronic wound extracts (CWE), 1 mg/ml in PBS mixed 1:1 with CWE (1 mg/ml protein, pools of 5 donors), 8 h, 0 h = 100%, mean of 3 independent experiments, read-out: Original amount of peptide remaining intact after 8 h in CWE): 80%
remaining at 24 h, 0.5 mg/ml ([2]; human, chronic wound extracts (CWE), 1 mg/ml in PBS mixed 1:1 with CWE (1 mg/ml protein, pools of 5 donors), 24 h, 0 h = 100%, mean of 3 independent experiments, read-out: Original amount of peptide remaining intact after 24 h in CWE): 42%
metabolised at 8 h, 0.5 mg/ml ([2]; human, chronic wound extracts (CWE), incubation with chronic wound extracts, 8 h, read-out: Breakdown (degradation) in CWE in 8 h): ~20%
Sequence: SHREFPFYGDYGS [mad-Hst1]
